From US10758584B2, “Topical formulation for promoting wound healing” (Oneness Biotech Co. LTD, priority 2016, dated 2020)

Assay: clinical
Conditions: human, in vivo
Protocol: […]. The PA and CA extracts in the topical formulation were prepared according to the methods described herein. The topical formulation is cream-based and further comprises cetostearyl alcohol (about 1.0-10% by weight, for example, about 3.5-6.5% by weight), white petrolatum and liquid petrolatum 350 cps (about 5%-30% by weight in total, for example, about 5-15% by weight in total), methyl paraben and propyl paraben (about 0.005% to 0.2% by weight in total, for example, 0.005-0.2% by weight in total), emulsifiers such as Span® 60 and Tween® 60 (about 0.5-10% by weight in total, for example, about 0.5-5% by weight in total), and one or more solvent such as propylene glycol (about 2-20% by weight, for example, about 4-10% by weight). The extracts were formulated in a cream-based topical formulation that additionally contains liquid petrolatum, propylene glycol, cetyl stearyl alcohol, white petrolatum, Span® 60, Tween® 60, propyl paraben, methyl paraben, and water.
A total of 12 patients completed the study. Each subject received one dose of the cream formulation on Day 1 followed by the blood sampling collection, then twice per day from Day 2 to Day 13, and a further blood sampling collection was scheduled on Day 14 after the final dose. […].

COc1ccc(-c2cc(=O)c3c(O)c(OC)c(OC)cc3o2)cc1 [salvigenin]
concentration at 1 day: ≤ 0.0124 ng/mL | concentration at 14 day: ≤ 0.017 ng/mL | number of patients with detectable plasma concentrations (1 day): 2 | number of patients with detectable plasma concentrations (14 day): 4
